Laboratory results reported in US20140194477A1, “KINASE PROTEIN BINDING INHIBITORS” (Roswell Park Cancer Institute, priority 2011, published 2014).

Columns and labels:
tumor = test: Tumor growth in vivo
cancer cell = test: Cancer cell viability in vitro; assay type: cell-based
[1] = 7-day multiple-dose MTD toxicologic study of Y15, oral gavage, CD-1 mice; assay type: in vivo; conditions: both sexes, CD-1, mouse, in vivo, oral gavage in mice, daily for 7 days
Protocol: (§1) • A 7-day, multiple-dose maximum tolerated dose toxicologic study of the chemical 1,2,4,5-Benzenetetramine tetrahydrochloride (Y15) was performed in CD-1 mice.
(§2) • The chemical 1,2,4,5-Benzenetetramine tetrahydrochloride (Y15) was the test article. Y-15 is a chemical grade compound available through Sigma-Aldrich, The test article was prepared in phosphate buffered saline (PBS). The test article was prepared by the sponsor and delivered to the study director prior to the study. The test article was stored in the freezer (0° C.), protected from light.
(§3) • The CD-1 [Hsd:ICR(CD-1)] albino mouse was used. […] Mice were obtained from Harlan (Frederick, Md.). • Mice were acclimated for a minimum of 2 days prior to testing. 20 male and 20 female mice, nulliparous and non-pregnant, were used. Normal weight gain, appearance and behavior were factors used to select healthy mice for testing. Only naive animals were used. Mice weighed 22-35 grams (males) and 20-27 grams (females), and were in good health at the start of the study. Mice were randomly assigned to 4 experimental groups (controls, low-dose, medium-dose, and high-dose) consisting of 5 males and 5 females. Mice were identified via cage cards, tail markings, and ear punch. Mouse identification codes contained information regarding experimental group (C=control, L=low-dose, M=medium-dose, H=high-dose), sex (M=male, F=female), and animal number (1-5). […] Tap water acidified to a pH of 2.5-3.5 was provided in autoclaved water bottles ad libitum. […] Environmental conditions in the animal housing room were maintained at an ambient temperature of 70±3°, relative humidity of 30-70%, and a 12:12 light-dark cycle. Animal housing rooms were ventilated with 100% fresh, HEPA filtered air with 10-15 air changes per hour.
(§4) A 7-day multiple-dose MTD toxicology study was performed.
(§5) The test article Y-15 was prepared in PBS and administered orally (PO) via orogastric gavage as a single daily dose on days 0-6 in the morning. The test article (Y-15) was diluted with the control article (PBS) so as not to exceed a volume of 100 μL. The test article was stored in the freezer (0° C.) and allowed to thaw and come to room temperature prior to administration. Mice were randomly allocated into 4 groups (controls, low-dose, medium-dose, and high-dose) consisting of 5 males and 5 females. Dosages were calculated on a “per mouse” basis, not on a mg/kg basis. […] Mice in the high-dose group received the equivalent of a 300 mg/kg dose for a 20 g mouse (6 mg). Mice in the control group received 100 μL of the control article (PBS). Groups received the following doses, drug concentrations, and gavage volumes, as outlined in Table 2:

CD-1 mice [2] = test: as above; assay type: in vivo
Protocol: as §1, §2, §3, §4, §5

FAK = FAK (Homo sapiens, UniProt Q05397); test: FAK Y397 phosphorylation; assay type: biochemical; conditions: in vitro
CD-1 mice [3] = test: 28-day multiple-dose toxicologic study, IP, CD-1 mice; assay type: in vivo, mouse
Protocol: A 28-day, multiple-dose toxicologic study of the chemical 1,2,4,5-Benzenetetramine tetrahydrochloride was performed in CD-1 mice.
• 1,2,4,5-benzenetetramine tetrahydrochloride. The test article was prepared in PBS (physiologic buffered saline). The test article was prepared by the sponsor and delivered to the study director prior to the study. The test article was stored in the freezer (0° C.), protected from light.
• PBS (physiologic buffered saline), • Test System: • The CD-1 [Hsd:ICR(CD-l)] albino mouse was used. The CD-1 mouse is conventionally used in 28 day toxicity tests to provide information on which human hazards can be judged, and is one of the choices of species preferred by regulatory agencies. Mice were obtained from Harlan (Frederick, MD). • Mice were acclimated for 2 days prior to testing. 12 male and 12 female mice, nulliparous and non-pregnant, were used. Normal weight gain, appearance and behavior were factors used to select healthy mice for testing. Only naive animals were used. Mice were 7 weeks old (males) and 9 weeks old (females), weighed 21-26 grams (males) and 17-23 grams (females), and were in good health at the start of the study. Mice were 11 weeks old (males) and 13 weeks old (females), weighed 20-32 grams (males) and 19-26 grams (females) at the conclusion of the study. • Mice were randomly assigned to 4 experimental groups (high-dose, medium-dose, low-dose, and controls) consisting of 3 males and 3 females. Mice were identified via cage cards, tail markings, and ear punch. Mouse identification is summarized in Table 1. • Mice were fed autoclaved Harlan-Teklad sterilizable 7012 mouse/rat diet ad libitum. The feed is routinely analyzed by the manufacturer for nutritional components and environmental contaminants. Tap water acidified to a pH of 2.5-3.5 was provided in autoclaved water bottles ad libitum. Municipal water supply is analyzed by the Bureau Veritas Consumer Product Services of Buffalo, N.Y. on an annual basis. There are no known contaminants in the feed or water provided to the test animals that would be expected to interfere with this study. • Mice were group-housed, 3 to a cage, in autoclaved polycarbonate/polysulfone microisolator cages with autoclaved contact bedding (bed ′o cobs, Anderson's Industrial Products Group). • Environmental conditions in the animal housing room were maintained at an ambient temperature of 70±3°, relative humidity of 30-70%, and a 12:12 light-dark cycle. Animal housing rooms were ventilated with 100% fresh, HEPA filtered air with 10-15 air changes per hour.
• A 28-day multiple-dose toxicology study was performed.
The test article (1,2,4,5-benzenetetramine tetrahydrochloride) was prepared in PBS (the control article) and administered intraperiotoneally (IP) as 20 doses once daily on days 0-4, 7-11, 14-18, and 21-25 in the morning. The compound was diluted so as not to exceed a volume of 0.1 mL.
The test article (1,2,4,5-benzenetetramine tetrahydrochloride) was stored in the freezer (0° C.) and thawed to room temperature prior to injection. Mice were randomly allocated into 4 groups (control, low-dose, medium-dose, and high-dose) consisting of 3 males and 3 females, Dosages were calculated on a “per mouse” basis, not on a mg/kg basis. Mice in the low-dose group received the equivalent of a 15 mg/kg dose for a 20 g mouse (0.3 mg). Mice in the medium-dose group received the equivalent of a 30 mg/kg dose for a 20 g mouse (0.6 mg). Mice in the high-dose group received the equivalent of a 45 mg/kg dose for a 20 g mouse (0.9 mg). Mice in the control group received 0.1 mL of PBS (phosphate-buffered saline). Groups received the following doses, as outlined in table 1: […]

[4] = IP, 28-day study, high-dose group

FAK, sequence (Q05397 whole entry): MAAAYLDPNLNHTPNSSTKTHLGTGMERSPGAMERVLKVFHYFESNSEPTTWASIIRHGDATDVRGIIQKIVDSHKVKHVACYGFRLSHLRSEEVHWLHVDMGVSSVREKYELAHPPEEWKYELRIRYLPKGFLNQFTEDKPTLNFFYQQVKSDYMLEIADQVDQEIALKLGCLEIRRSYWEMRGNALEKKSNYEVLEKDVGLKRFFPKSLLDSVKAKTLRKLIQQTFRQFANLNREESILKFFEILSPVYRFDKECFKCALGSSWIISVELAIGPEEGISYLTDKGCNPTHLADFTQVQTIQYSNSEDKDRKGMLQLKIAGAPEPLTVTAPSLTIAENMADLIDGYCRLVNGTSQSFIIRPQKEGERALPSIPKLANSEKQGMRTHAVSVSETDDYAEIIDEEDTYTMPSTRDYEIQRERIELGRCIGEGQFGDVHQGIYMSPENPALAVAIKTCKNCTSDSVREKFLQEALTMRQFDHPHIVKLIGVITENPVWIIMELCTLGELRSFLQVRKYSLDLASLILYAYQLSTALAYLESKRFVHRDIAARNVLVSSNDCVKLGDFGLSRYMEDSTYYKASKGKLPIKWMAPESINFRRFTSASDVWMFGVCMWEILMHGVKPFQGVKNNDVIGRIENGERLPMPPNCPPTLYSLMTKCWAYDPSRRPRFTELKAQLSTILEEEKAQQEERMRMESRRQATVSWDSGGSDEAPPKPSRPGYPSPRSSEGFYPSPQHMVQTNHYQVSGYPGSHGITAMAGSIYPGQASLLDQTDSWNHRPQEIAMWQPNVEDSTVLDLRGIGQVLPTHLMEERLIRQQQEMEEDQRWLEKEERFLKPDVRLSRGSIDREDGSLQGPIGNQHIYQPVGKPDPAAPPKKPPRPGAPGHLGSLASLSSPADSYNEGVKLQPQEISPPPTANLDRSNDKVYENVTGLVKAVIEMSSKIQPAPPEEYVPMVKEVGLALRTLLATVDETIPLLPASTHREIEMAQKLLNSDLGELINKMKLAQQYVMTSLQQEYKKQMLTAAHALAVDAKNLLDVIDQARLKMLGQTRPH

With `Cl.Cl.Cl.Cl.Nc1cc(N)c(N)cc1N` [Y15, 1,2,4,5-benzenetetraamine tetrahydrochloride] the “tumor growth in vivo” value (tumor) was “blocks tumor growth in vivo”, the “cancer cell viability in vitro” value (cancer cell) was “inhibits cancer cell viability in vitro” and the MTD at 7 days [1] was no less than 100 mg/kg. The NOAEL at 7 days ([1]; read-out: no observable adverse effects level (NOAEL)) was 100 mg/kg, the “maximal tolerated dose (summary statement)” value (CD-1 mice [2]; delivery 5 days/week, duration 7 days) was 200 mg/kg and the “toxicity findings, medium-dose group” value (CD-1 mice [2]; oral gavage daily days 0-6, 100 mg/kg) was “no mortality, clinical signs of toxicity, or decrement in mean body weight”. For the same compound, the “toxicity findings, high-dose group” value (CD-1 mice [2]; oral gavage daily days 0-6, 200 mg/kg) was “weight loss, severe clinical signs of abdominal distention, and mortality due to gastrointestinal dilatation”, the “Y397-phosphorylation of FAK in vitro” value (FAK) was “directly and specifically decreases” and the “toxicity (summary statement)” value (CD-1 mice [3]; 30 mg/kg by ip administration, duration 28 days) was “no toxicity”. For the same compound, the pain following injection (CD-1 mice [3]; IP, 20 daily doses over 28 days, 15, 30, 45 mg/kg equivalent) was “pain following injection in all dose groups”, the clinical chemistry changes (CD-1 mice [3]; IP, 28-day study) was “not associated with any changes in clinical chemistry that were statistically and clinically significant” and the “gross and histopathologic findings” value (CD-1 mice [3]; IP, 28-day study, all dose groups) was “gross and histopathologic peritonitis in mice in all dose groups”. For the same compound, the mean body weights (CD-1 mice [3]; IP, 28-day study, high dose group (45 mg/kg equivalent)) was “statistically significant lowered mean body weights”, the hematologic changes (CD-1 mice [3]; [4]) was “Some statistically and clinically significant hematologic changes” and the mortality (CD-1 mice [3]; [4]) was “unexpected mortality in the high-dose group”. The clinical signs (CD-1 mice [3]; IP, 28-day study, medium (30 mg/kg) and high (45 mg/kg) dose groups) was “clinical signs consistent with general malaise and peritonitis” and the weight loss (CD-1 mice [3]; IP, 28-day study, medium- and high-dose groups) was “weight loss in the medium- and high-dose groups”.
